The source of these data is patent US20150118165A1, “USE OF CYCLOHEXANOL ETHERS HAVING ANTIMICROBIAL PROPERTIES” (Merck Patent GmbH, priority 2012, published 2015).

Structures are written as SMILES.

Series [1] has as its system Candida albicans. As to the kind of experiment: Antimicrobial action, microbe count (procedure as Example 1). It counts as cell-based. The conditions noted are these: for Δlog: t24 h vs t0. As to the method: (§1) For sample preparation, the substance I-2 being investigated is homogeneously dispersed in an amount of 1.0% in a water/ethanol mixture (12% of ethanol) (=sample). A suspension of Staphylococcus epidermidis (ATCC 12228) having an optical density of 1.0 in CASO broth (Merck 1.05459) is diluted 1:10000 with CASO broth. 500 μl of sample are added to 500 μl of microorganism suspension, and the mixture is incubated at 35° C. for 24 h or 48 h. After the incubation, the test batches are diluted to −6 in 10 unit steps, and 0.1 ml of each is plated-out on CASO agar (Merck 1.05458) and incubated at 35° C. for 24 h.
(§2) In order to determine the initial microbe count, 0.1 ml of the bacteria suspension used are plated-out on CASO agar (Merck 1.05458) and incubated at 35° C. for 24 h.
(§3) The colonies are subsequently counted, and the microbe count per ml is determined compared with the negative control (12% of ethanol in water).
(§4) Procedure in Accordance with Example 1
(§5) The concentrations indicated are the final use concentrations. In order to prepare the stock solution, double the final concentration are prepared in the solvent indicated. This is subsequently diluted 1:2 with the corresponding microbe suspension. In the case of Aspergillus brasiliensis, the microbe count determination is exceptionally carried out after 48 h, in the case of Malassezia furfur after 72 h.

The test system of series [2] is Corynebacterium xerosis. Described as above. It counts as cell-based. The conditions noted are these: 0.5% in H2O. On the procedure:
as §1, §2, §3, §4, §5

Series [3] has as its system Propionibacterium acnes. Described as above. To be noted: for Δlog: t24 h vs t0. The class given is cell-based. On the procedure:
as §1, §2, §3, §4, §5

For series [4], the system named is Salmonella enterica. Described as above. It counts as cell-based. The conditions noted are these: for Δlog: t24 h vs t0. On the procedure: as §1, §2, §3, §4, §5
The subject of series [5] is Serratia marcescens. The series is described as above. To be noted: for Δlog: t24 h vs t0. The class given is cell-based. As to the method:
as §1, §2, §3, §4, §5

For series [6], the system named is Staphylococcus aureus. The description is as above. It counts as cell-based. To be noted: 1.0% in H2O(12% of ethanol). On the procedure: as §1, §2, §3, §4, §5
For series [7], the system named is Echerichia coli. The series is described as above. It counts as cell-based, Escherichia coli. To be noted: for Δlog: t24 h vs t0. On the procedure: as §1, §2, §3, §4, §5
Series [8] concerns Aspergillus brasiliensis. As to the kind of experiment: Antimicrobial action, microbe count (procedure as Example 1, count after 48 h). It counts as cell-based. The conditions noted are these: for Δlog: count after 48 h vs t0; for Microbe count t24 h: count after 48 h. On the procedure:
as §1, §2, §3, §4, §5

For series [9], the system named is Malassezia furfur. Briefly: Antimicrobial action, microbe count (procedure as Example 1, count after 72 h). The class given is cell-based. To be noted: 1.0% in H2O. On the procedure: as §1, §2, §3, §4, §5
Series [10] can be described thus: Measurement of density and viscosities (Ubbelohde viscometer) to estimate spreadability. The class given is physicochemical. On the procedure: After measurement of the densities and kinematic viscosities using an Ubbelohde viscometer, the following dynamic viscosities arise:
Kinematic viscosity of I-1: 15.2 mm^2/s Density of I-1: 0.9897 g/cm^3; 25° C.
Dynamic viscosity of I-1=kinematic viscosity of I-1×density I-1=15.0 [mPas]
Since spreadabilities and viscosities of cosmetic emollients correlate well, good spreadabilities can be concluded from the viscosities determined.

For series [11], the system named is Staphylococcus epidermidis (ATCC 12228). As to the kind of experiment: Antimicrobial action, microbe count after incubation in CASO broth. The class given is cell-based. To be noted: sample 1.0% in water/ethanol (12% of ethanol), 500 µl sample + 500 µl suspension; 35° C., 24 h or 48 h; initial count 5.8 × 10^4. As to the method: as §1, §2, §3
The mark [12] stands for this setting: 0.25% in H2O, count t0 1.3 × 10^6.
Setting [13] is: 0.25% in H2O, count t0 3.2 × 10^5.

On to `OCCOC1CCCCC1` [Substance I-1], for which the “Microbe count t24 h” value in series [1] (setting [12]) is reported as 4.3 × 10^6; in [1] (1.0% in H2O(12% of ethanol), count t0 6.0 × 10^3), 0; in series [2] (count t0 1.0 × 10^6) it was 2.0 × 10^6; in series [3] (1.0% in H2O, count t0 7.8 × 10^5) it was 7.0 × 10^5; in series [4] (0.5% in H2O, count t0 1.0 × 10^6), 9.0 × 10^3; in series [4] (0.8% in H2O(12% of ethanol), count t0 1.3 × 10^4), 0. Further, the “Microbe count t24 h” value in series [5] (0.5% in H2O, count t0 2.9 × 10^5) is 1.7 × 10^4; in series [5] (1.0% in H2O, count t0 2.5 × 10^5), 0; in [6] (count t0 7.2 × 10^4) it was 2.5 × 10^2; in series [7] (setting [13]), 8.0 × 10^8; in series [7] (0.8% in H2O(12% of ethanol), count t0 6.3 × 10^4) it was 0; in [8] (1.0% in H2O(12% of ethanol), count t0 8.0 × 10^2), 1.0 × 10^2. In series [9] (count t0 4.0 × 10^2, count after 72 h), the “Microbe count t24 h” value was 0. Moreover, the Δlog entry in series [1] (0.25% in H2O) is reported as “+0.53”; in series [1] (1.0% in H2O(12% of ethanol)), −3.78; in series [2] (t24 h vs t0), “+0.30”; in series [3] (1.0% in H2O) it was −0.05; in series [4] (0.5% in H2O) it was −2.05; in series [4] (0.8% in H2O(12% of ethanol)), −4.11. Further, the Δlog in series [5] (0.5% in H2O) was −1.23; in [5] (1.0% in H2O), −5.40; in [6] (t24 h vs t0) it was −2.46; in [7] (0.25% in H2O), “+3.40”; in series [7] (0.8% in H2O(12% of ethanol)), −4.80; in [8] (1.0% in H2O(12% of ethanol)), −0.90. The Δlog in series [9] (count after 72 h vs t0) was −2.60. In series [10] (25° C.), the Density was 0.9897 g/mL. Moreover, the Kinematic viscosity in series [10] (Ubbelohde viscometer) is 15.2 mm^2/s. In addition, in series [10] (kinematic viscosity × density), the Dynamic viscosity was 15.0 mPas.
Consider `COC1CCC(O)CC1` (stereo not shown) [Substance I-2], for which the Final microbe count in series [11] was 4.0 × 10^4 CFU/ml.
For the molecule `OCCOC1CCC(OCCO)CC1` (stereo not shown) [Substance I-3, 2-[4-(2-hydroxyethoxy)cyclohexyloxy]ethanol], the “Microbe count t24 h” value was 4.0 × 10^7 in [3] (0.5% in H2O, count t0 3.4 × 10^5); 1.6 × 10^4 in [8] (0.5% in H2O, count t0 2.8 × 10^4); 1.4 × 10^3 in [8] (1.0% in H2O, count t0 2.8 × 10^4). In addition, the Δlog entry is given as “+2.07” in [3] (0.5% in H2O); −0.24 in series [8] (0.5% in H2O, t0 2.8 × 10^4); −1.30 in [8] (1.0% in H2O).
For `CC(O)COC1CCCCC1` (stereo not shown) [Substance I-9], the results for the “Microbe count t24 h” value in series [1] (setting [12]) and in series [7] (setting [13]) were 1.4 × 10^6 and 4.30 × 10^8, respectively. Moreover, the figures for the Δlog entry in [1] (0.25% in H2O) and in series [7] (0.25% in H2O) were “+0.04” and “+3.13”, respectively.
